Experimental data as given in ChEMBL document CHEMBL1129020, “Synthesis and protein kinase C inhibitory activities of indane analogs of balanol” (Bioorg Med Chem Lett, 1996).

How the values were obtained:
[1] = biological target: cAMP-dependent protein kinase (PKA) (Homo sapiens, UniProt P22694+P17612+P22612); assay: Inhibition of cAMP-dependent protein kinase (PKA); type: protein assay
[2] = biological target: T1, Protein kinase C delta type (Homo sapiens, UniProt Q05655); assay: Inhibition of protein kinase C delta
[3] = biological target: T2, Protein kinase C eta type (Homo sapiens, UniProt P24723); assay: Inhibition of protein kinase C eta
[4] = biological target: T3, Protein kinase C beta type (Homo sapiens, UniProt P05771); assay: Inhibition of protein kinase C beta II
[5] = biological target: T3, Protein kinase C beta type; assay: Inhibition of protein kinase C beta 1
[6] = biological target: T4, Protein kinase C epsilon type (Homo sapiens, UniProt Q02156); assay: Inhibition of protein kinase C epsilon
T4 sequence (Q02156 whole entry): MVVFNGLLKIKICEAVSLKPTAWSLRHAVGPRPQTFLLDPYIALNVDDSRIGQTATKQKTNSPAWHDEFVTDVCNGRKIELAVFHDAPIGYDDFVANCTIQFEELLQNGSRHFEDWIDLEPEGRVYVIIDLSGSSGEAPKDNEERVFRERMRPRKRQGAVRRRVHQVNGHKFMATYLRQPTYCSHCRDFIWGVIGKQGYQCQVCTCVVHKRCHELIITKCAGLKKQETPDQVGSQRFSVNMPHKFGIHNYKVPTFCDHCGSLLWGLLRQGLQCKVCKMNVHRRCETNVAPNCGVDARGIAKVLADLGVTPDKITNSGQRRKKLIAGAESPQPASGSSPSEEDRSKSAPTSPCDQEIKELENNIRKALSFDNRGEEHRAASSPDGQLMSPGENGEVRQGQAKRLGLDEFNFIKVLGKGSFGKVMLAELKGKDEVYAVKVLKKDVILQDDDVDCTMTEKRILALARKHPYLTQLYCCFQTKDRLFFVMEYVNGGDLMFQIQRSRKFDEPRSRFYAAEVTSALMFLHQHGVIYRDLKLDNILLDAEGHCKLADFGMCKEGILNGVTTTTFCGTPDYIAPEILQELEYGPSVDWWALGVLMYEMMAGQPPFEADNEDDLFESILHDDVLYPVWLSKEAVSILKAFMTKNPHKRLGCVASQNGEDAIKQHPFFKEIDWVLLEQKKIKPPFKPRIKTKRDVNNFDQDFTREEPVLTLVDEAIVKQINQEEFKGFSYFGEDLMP

[7] = biological target: T5, Protein kinase C gamma type (Homo sapiens, UniProt P05129); assay: Inhibition of protein kinase C gamma
[8] = biological target: Protein kinase C alpha type (Homo sapiens, UniProt P17252); assay: Inhibition of protein kinase C alpha
[9] = biological target: T5, Protein kinase C gamma type; assay: Inhibition of Protein kinase C gamma
[10] = biological target: T1, Protein kinase C delta type; assay: Inhibition of Protein kinase C delta
[11] = biological target: T2, Protein kinase C eta type; assay: Inhibition of Protein kinase C eta
[12] = biological target: T3, Protein kinase C beta type; assay: Inhibition of Protein kinase C beta 2
[13] = biological target: T3, Protein kinase C beta type; assay: Inhibition of Protein kinase C beta 1

T3 sequence (P05771 whole entry): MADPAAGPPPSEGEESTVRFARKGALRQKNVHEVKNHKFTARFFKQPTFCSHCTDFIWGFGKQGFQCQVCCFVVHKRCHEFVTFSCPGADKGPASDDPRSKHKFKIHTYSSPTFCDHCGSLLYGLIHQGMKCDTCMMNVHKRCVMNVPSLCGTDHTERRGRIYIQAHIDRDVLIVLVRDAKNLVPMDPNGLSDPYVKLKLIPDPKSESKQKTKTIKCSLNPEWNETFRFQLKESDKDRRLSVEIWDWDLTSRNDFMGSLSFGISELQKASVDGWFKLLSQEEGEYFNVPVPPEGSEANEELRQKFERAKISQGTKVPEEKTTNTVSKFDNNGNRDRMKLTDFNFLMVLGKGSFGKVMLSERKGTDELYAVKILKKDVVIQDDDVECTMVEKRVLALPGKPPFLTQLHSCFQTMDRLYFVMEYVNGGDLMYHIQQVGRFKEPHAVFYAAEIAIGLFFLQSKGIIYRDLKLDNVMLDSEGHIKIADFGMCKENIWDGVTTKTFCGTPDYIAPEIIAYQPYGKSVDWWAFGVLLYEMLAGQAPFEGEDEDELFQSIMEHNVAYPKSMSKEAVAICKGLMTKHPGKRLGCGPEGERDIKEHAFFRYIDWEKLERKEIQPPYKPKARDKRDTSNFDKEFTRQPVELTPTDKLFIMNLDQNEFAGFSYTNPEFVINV
T2 sequence (P24723 whole entry): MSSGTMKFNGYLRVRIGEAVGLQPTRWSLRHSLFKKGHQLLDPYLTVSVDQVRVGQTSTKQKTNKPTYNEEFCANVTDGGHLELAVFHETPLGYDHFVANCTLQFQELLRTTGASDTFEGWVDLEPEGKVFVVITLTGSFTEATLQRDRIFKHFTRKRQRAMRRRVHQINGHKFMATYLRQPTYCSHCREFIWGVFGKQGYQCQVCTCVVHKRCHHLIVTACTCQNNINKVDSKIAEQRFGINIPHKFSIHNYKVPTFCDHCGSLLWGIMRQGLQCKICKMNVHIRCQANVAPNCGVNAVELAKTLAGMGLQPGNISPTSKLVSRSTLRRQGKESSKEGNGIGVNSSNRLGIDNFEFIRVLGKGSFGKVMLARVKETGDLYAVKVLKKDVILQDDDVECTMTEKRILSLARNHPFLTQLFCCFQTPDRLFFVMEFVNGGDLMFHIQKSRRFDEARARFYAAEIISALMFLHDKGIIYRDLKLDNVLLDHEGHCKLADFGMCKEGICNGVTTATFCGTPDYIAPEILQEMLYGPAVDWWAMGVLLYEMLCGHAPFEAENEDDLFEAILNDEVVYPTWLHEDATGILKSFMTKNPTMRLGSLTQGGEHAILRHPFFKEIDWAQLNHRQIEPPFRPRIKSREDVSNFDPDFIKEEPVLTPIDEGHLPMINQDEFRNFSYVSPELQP
T1 sequence (Q05655 whole entry): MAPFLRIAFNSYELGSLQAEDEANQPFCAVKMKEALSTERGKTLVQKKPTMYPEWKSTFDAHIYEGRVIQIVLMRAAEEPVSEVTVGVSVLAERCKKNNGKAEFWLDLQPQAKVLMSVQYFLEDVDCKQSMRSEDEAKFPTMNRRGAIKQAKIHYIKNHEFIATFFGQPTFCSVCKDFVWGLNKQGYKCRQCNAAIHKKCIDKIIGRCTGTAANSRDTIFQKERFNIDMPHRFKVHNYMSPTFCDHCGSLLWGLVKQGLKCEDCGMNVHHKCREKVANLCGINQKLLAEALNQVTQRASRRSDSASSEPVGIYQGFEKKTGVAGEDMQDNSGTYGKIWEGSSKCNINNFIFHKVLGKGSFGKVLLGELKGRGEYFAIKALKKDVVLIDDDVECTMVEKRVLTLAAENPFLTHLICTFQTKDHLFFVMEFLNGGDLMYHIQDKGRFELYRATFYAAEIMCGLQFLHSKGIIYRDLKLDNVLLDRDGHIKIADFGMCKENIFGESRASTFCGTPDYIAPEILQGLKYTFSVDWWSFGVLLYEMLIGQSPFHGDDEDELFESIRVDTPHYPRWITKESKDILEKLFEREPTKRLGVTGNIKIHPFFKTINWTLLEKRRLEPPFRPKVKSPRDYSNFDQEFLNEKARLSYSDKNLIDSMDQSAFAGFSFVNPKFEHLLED

Row | IC50 [1] | IC50 [2] | IC50 [3] | IC50 [4] | IC50 [5] | IC50 [6] | IC50 [7] | IC50 [8] | IC50 [9] | IC50 [10] | IC50 [11] | IC50 [12] | IC50 [13] | Structure (SMILES)
1 | – | – | – | – | – | – | – | 30 nM | 10 nM | 4 nM | 3 nM | 10 nM | 10 nM | O=C(N[C@@H]1CNCCCC1OC(=O)c1cc(O)c(C(=O)c2c(O)cccc2C(=O)O)c(O)c1)c1ccc(O)cc1 (stereo not given in full)
2 | 50000 nM | 50 nM | < 50 nM | 50 nM | 60 nM | 1900 nM | 50 nM | 290 nM | – | – | – | – | – | O=C(N[C@@H]1c2ccccc2C[C@@H]1OC(=O)c1cc(O)c(C(=O)c2c(O)cccc2C(=O)O)c(O)c1)c1ccc(O)cc1
3 | – | – | – | – | – | – | – | 3000 nM | 400 nM | 420 nM | 260 nM | 880 nM | 500 nM | O=C(N[C@H]1CNCCCC1OC(=O)c1cc(O)c(C(=O)c2c(O)cccc2C(=O)O)c(O)c1)c1ccc(O)cc1 (stereo not given in full)
4 | – | 0.9 nM | 0.6 nM | 50 nM | 40 nM | 50 nM | 10 nM | 40 nM | – | – | – | – | – | O=C(N[C@@H]1CCCC1OC(=O)c1cc(O)c(C(=O)c2c(O)cccc2C(=O)O)c(O)c1)c1ccc(O)cc1 (stereo not given in full)
5 | – | 32000 nM | 35000 nM | 39000 nM | > 50000 nM | > 50000 nM | 32000 nM | > 50000 nM | – | – | – | – | – | O=C(N[C@@H]1c2ccccc2C[C@H]1OC(=O)c1cc(O)c(C(=O)c2c(O)cccc2C(=O)O)c(O)c1)c1ccc(O)cc1
6 | 50000 nM | 30 nM | < 10 nM | 170 nM | 200 nM | 310 nM | 160 nM | 160 nM | – | – | – | – | – | O=C(N[C@@H]1c2ccccc2CC1OC(=O)c1cc(O)c(C(=O)c2c(O)cccc2C(=O)O)c(O)c1)c1ccc(O)cc1 (mixture of isomers)
7 | – | < 25 nM | < 25 nM | < 25 nM | < 29 nM | 480 nM | < 30 nM | 70 nM | – | – | – | – | – | O=C(N[C@@H]1Cc2ccccc2C1OC(=O)c1cc(O)c(C(=O)c2c(O)cccc2C(=O)O)c(O)c1)c1ccc(O)cc1 (mixture of isomers)
8 | > 100000 nM | 21000 nM | – | 37000 nM | 37000 nM | 25000 nM | 34000 nM | > 50000 nM | – | – | – | – | – | O=C(N[C@H]1c2ccccc2CC1OC(=O)c1cc(O)c(C(=O)c2c(O)cccc2C(=O)O)c(O)c1)c1ccc(O)cc1 (mixture of isomers)
9 | – | – | – | – | – | – | – | 370 nM | 140 nM | 50 nM | < 100 nM | 260 nM | 80 nM | O=C(NC1CNCCCC1OC(=O)c1cc(O)c(C(=O)c2c(O)cccc2C(=O)O)c(O)c1)c1ccc(O)cc1 (racemic)

Row | Structure (SMILES) | IC50 [1] | IC50 [2] | IC50 [3] | IC50 [4] | IC50 [5] | IC50 [6] | IC50 [7] | IC50 [8] | IC50 [9] | IC50 [10] | IC50 [11] | IC50 [12] | IC50 [13]
10 | O=C(N[C@@H]1CNCC1OC(=O)c1cc(O)c(C(=O)c2c(O)cccc2C(=O)O)c(O)c1)c1ccc(O)cc1 (stereo not given in full) | 70 nM | 5 nM | 4 nM | 33 nM | 10 nM | 10 nM | 12 nM | 22 nM | – | – | – | – | –
